Assay results reported in article PMC8414367, “(E)-7-Ethylidene-lithocholic Acid (7-ELCA) Is a Potent Dual Farnesoid X Receptor (FXR) Antagonist and GPBAR1 Agonist Inhibiting FXR-Induced Gene Expression in Hepatocytes and Stimulating Glucagon-like Peptide-1 Secretion From Enteroendocrine Cells” (Frontiers in Pharmacology, 2021).
Where “and” joins values, the source holds several entries; their conditions need not be identical. Equal entries are not always repeated. Where two headings read alike, the source gives them in different places.

How the values were obtained:
[1] = target: T1, human FXR (Homo sapiens, UniProt Q96RI1); test: FXR luciferase reporter gene assay (FXRE-luc) in HepG2 cells, antagonistic mode; assay type: cell-based; settings: for IC50: HepG2, co-treatment with 1 µM OCA, 24 h, read-out: IC50, inhibition of OCA-induced FXR activation
T1 sequence (Q96RI1 1-486): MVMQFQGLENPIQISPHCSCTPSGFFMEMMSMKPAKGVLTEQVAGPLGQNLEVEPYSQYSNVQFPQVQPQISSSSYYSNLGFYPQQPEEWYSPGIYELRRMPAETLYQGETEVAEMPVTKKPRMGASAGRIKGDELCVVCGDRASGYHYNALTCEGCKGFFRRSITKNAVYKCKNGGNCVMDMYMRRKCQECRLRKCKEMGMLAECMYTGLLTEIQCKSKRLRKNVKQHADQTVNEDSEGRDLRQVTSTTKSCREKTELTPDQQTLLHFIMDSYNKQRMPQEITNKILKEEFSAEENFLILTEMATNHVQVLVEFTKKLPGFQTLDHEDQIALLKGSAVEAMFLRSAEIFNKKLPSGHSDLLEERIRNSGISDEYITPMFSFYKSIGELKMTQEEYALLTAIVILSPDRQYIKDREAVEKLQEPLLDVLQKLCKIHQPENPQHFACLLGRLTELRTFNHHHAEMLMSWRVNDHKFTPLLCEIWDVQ
T1 sequence (P19793 1-462 partner): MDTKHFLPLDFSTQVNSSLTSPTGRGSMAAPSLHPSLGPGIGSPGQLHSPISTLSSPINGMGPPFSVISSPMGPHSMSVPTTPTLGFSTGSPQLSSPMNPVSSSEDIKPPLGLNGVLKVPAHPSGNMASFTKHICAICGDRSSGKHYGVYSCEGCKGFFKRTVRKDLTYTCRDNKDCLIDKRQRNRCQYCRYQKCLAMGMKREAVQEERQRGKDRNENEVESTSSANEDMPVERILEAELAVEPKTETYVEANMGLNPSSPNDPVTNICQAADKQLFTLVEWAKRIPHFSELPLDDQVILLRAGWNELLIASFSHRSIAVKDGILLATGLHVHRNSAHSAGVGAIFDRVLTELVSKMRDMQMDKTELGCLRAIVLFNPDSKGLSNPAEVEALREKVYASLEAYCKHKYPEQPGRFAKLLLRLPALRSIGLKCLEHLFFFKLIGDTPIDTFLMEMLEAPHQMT

[2] = test system: HepG2; test: MTS viability assay; assay type: cell-based, human; settings: Homo sapiens; HepG2, 24 h, MTS; read-out: IC50 (µM), cell viability
Method: (§1) The potential cytotoxicity of 7-alkylated chenodeoxycholic acid derivatives were assessed in different human (HepG2, HepaRG and Huh7) and murine (AML12) hepatocyte-derived cell lines. For this purpose, hepatic cells were treated at increasing concentration for 24h and analyzed by MTS viability assay.
(§2) Table S2. Cell viability was determined using the Cell Titer 96 Aqueous One Solution Cell Proliferation Assay (MTS assay) after treatment with test compounds for 24 h in four different hepatic cell lines. Vehicle (0.1% DMSO) and background (10% SDS; v/v, toxic control) controls of cell viability were set to be 100% and 0%, respectively.

[3] = test system: HepaRG; test: MTS viability assay; assay type: cell-based, human; settings: Homo sapiens, 24 h, MTS, read-out: IC50 (µM), cell viability
Method: as §1, §2

[4] = test system: Huh7; test: MTS viability assay; assay type: cell-based, human; settings: Homo sapiens, Huh-7; Huh7, 24 h, MTS; read-out: IC50 (µM), cell viability
Method: as §1, §2

[5] = MTS viability assay; assay type: cell-based, human; settings: human, vehicle = 100%
Method: as §1, §2

[6] = test system: BSEP and SHP mRNA (FXR target genes), primary human hepatocytes; test: RT-qPCR of FXR target genes in primary human hepatocytes; assay type: cell-based; settings: for BSEP mRNA level upregulated by OCA / SHP mRNA level upregulated by OCA: 40 µM with OCA 1 µM, 24 h; for BSEP and SHP mRNA expression, compound per se: without OCA
Description: Total RNA from HepaRG cells or primary human hepatocyte samples was isolated by the phenol/chloroform method with TRI-reagent (Merck) according to the manufacturer's protocol. The cDNA was synthesized using a Tetro cDNA Synthesis Kit (Bioline, now Meridian Bioscience, Memphis, United States), and RT-qPCR was run in the Quant Studio 6 instrument using the Fast Advanced Master Mix (ThermoFisher Scientific, Waltham, United States) according to the MIQE protocols. All the probes were obtained from ThermoFisher Scientific: ABCB11 (BSEP, Hs00184824_m1), NR0B2 (SHP, Hs00222677_m1).
(§3) FIGURE 6 Regulation of FXR downstream genes by 7-ELCA and 7β-propyl-CDCA in the presence or absence of 1 µM OCA as the potent FXR agonist. Real-time qPCR analysis of mRNA expression of (A,C) BSEP and (B,D) SHP genes was performed in terminally differentiated HepaRG hepatic cells (A,B), and in primary human hepatocytes (PHH) from one donor treated for 24 h (C,D). (E) SHP protein expression in HepaRG cells after 48 h treatment with OCA alone or in combination with 7-ELCA and 7β-propyl-CDCA. Data were normalized to B2M mRNA or GAPDH protein and are expressed relative to those of control (vehicle-treated) cells.

[7] = test system: SHP protein, HepaRG cells; test: Western blot of SHP protein in HepaRG cells; assay type: cell-based, human; settings: with OCA 1 µM, 48 h
Method: Protein determination was performed from whole-cell lysates of terminally differentiated HepaRG cells treated for 48 h. Protein levels were quantified using a PierceTM BCA Protein Assay Kit (ThermoFisher Scientific, Waltham, United States) according to the manufacturer's protocol. The western blotting analysis was performed as described in our previous paper ([Stefela et al., 2020]) with mouse monoclonal anti-SHP antibody (clone OTI5F10, Cat. No. TA806319, Origene, Rockville, MD, United States) and antibody against GAPDH (Cell Signaling Technology, Leiden, the Netherlands) as a loading control. Protein concentration was measured using the BCA protein assay (Sigma-Aldrich/Merck, Prague, Czech Republic). Protein expression quantification was done using densitometric software (LabImage, Kapelan Bio-Imaging, Germany).
as §3, with “Data were normalized to B2M mRNA or GAPDH protein and are expressed relative to those of control (vehicle-treated) cells.” left out

[8] = HepG2, read-out: relative response (%) to the model FXR ligand activation (set to be 100%), GW4064 1 µM

SMILES | IC50 [1] | IC50 [2] | IC50 [3] | IC50 [4] | viability at 24 h, 10 µM ([5]; HepG2 cells, HepG2, 24 h) | viability at 24 h, 10 µM ([5]; HepaRG cells) | viability at 24 h, 10 µM ([5]; Huh7 cells, Huh7, 24 h) | melting point | BSEP mRNA level upregulated by OCA [6] | SHP mRNA level upregulated by OCA [6] | BSEP and SHP mRNA expression, compound per se [6] | SHP protein expression in cells treated with OCA [7] | further results
CCC[C@@]1(O)C[C@@H]2C[C@H](O)CC[C@]2(C)C2CC[C@@]3(C)C(CC[C@@H]3[C@H](C)CCC(=O)O)C21 (stereo partly drawn) [2f, 3α,7α-Dihydroxy-7β-propyl-5β-cholan-24-oic acid] | 20.5 ± 1 µM | 107 ± 1.1 µM | 97.3 µM | > 100 µM | 94.9 ± 11.7% | 89.4 ± 2.5% | 117 ± 2.3% | 100 to 105 °C | reduced | reduced | did not have an impact | FXR antagonistic effect | inhibition at 100 µM ([1]; HepG2, at 100 µM, with 1 µM OCA, read-out: inhibition of FXR activation): ~85%; remaining activity at 10 µM ([1]; HepG2, tested compound 10 µM, GW4064 1 µM, read-out: relative response (%) to the model FXR ligand activation (set to be 100%), GW4064 1 µM): 85.7 ± 11.2%; remaining activity at 40 µM ([1]; HepG2, tested compound 40 µM, CDCA 20 µM, * = significant effect on cellular viability, read-out: relative response (%) to the model FXR ligand activation (set to be 100%), CDCA 20 µM): 96.4 ± 0.7%; remaining activity at 40 µM ([1]; HepG2, tested compound 40 µM, GW4064 1 µM, * = significant effect on cellular viability, read-out: relative response (%) to the model FXR ligand activation (set to be 100%), GW4064 1 µM): 61.7 ± 10.8%
C/C=C1\C[C@@H]2C[C@H](O)CC[C@]2(C)[C@H]2CC[C@]3(C)[C@@H]([C@H](C)CCC(=O)O)CC[C@H]3[C@H]12 [2a, (E)-3α-Hydroxy-7-ethylidene-5β-cholan-24-oic acid] | 15 µM and 15.1 µM | > 200 µM | > 200 µM | > 200 µM | 99.7 ± 1.2% | 119 ± 6% | 111 ± 9.5% | 67 to 72 °C | reduced | reduced | did not have an impact | FXR antagonistic effect | inhibition at 100 µM ([1]; HepG2, read-out: inhibition of FXR activation): ~95%; remaining activity at 40 µM ([1]; HepG2, read-out: relative response (%) to the model FXR ligand activation (set to be 100%), CDCA 20 µM): 67.3 ± 0.6%; remaining activity at 10 µM [1, 8]: 82.9 ± 2.3%; remaining activity at 40 µM [1, 8]: 51.1 ± 2.9%; capacity to antagonize OCA-stimulated FXR activation (in words) ([1]; with 1 µM OCA, Figure 3B): most potent FXR antagonist
